Measurements reported in patent US20250228854A1, “HETEROCYCLIC SUBSTITUTED PYRIMIDOPYRAN COMPOUNDS AND THEIR APPLICATIONS” (priority 2023, published 2025).
Structures can show the parent of a compound that is named as a salt.

What was measured:
[1] = test system: p-ERK of KRAS^G12D mutant AsPC-1 cells; assay: AsPC-1 cell p-ERK inhibition test (HTRF), Experimental Example 1; assay type: cell-based; conditions: Homo sapiens, ASPC1, 3 hours compound incubation
Procedure: Experimental Example 1. AsPC-1 Cell p-ERK Inhibition Test
The inhibitory activity of the compound on p-ERK levels of KRAS^G12D-mutant pancreatic cancer AsPC-1 cells was assessed by HTRF.
ASPC-1 cells were purchased from ATCC; RPMI-1640 medium was purchased from Gibco; Fetal Bovine Serum was purchased from Hyclone; Advanced Phospho-ERK1/2 (THR202/TYR204) KIT was purchased from Bioauxilium—
ASPC-1 cells were seeded in a 384-well cell culture plate with a white bottom, 8 μL of cell suspension per well, containing 7,500 cells per well, and the cell plates were placed in a carbon dioxide incubator and incubated at 37° C. overnight;
The test compound was diluted to 3 mM with 100% DMSO as the first concentration, and then diluted to ten concentrations of 3000, 1000, 300, 100, 30, 10, 3, 1, 0.3, 0.1 μM with a pipette. Take 2 μL of compound and add 198 μL of cell starvation medium. After mixing well, take 15 μL of compound solution and add 35 μL of cell starvation medium and mix well. Then add 4 μL of compound solution in each well to the corresponding cell plate well. Place the cell plate back in the carbon dioxide incubator for continued incubation for 3 hours. At this time, the compound concentration is 3,000, 1,000, 300, 100, 30, 10, 3, 1, 0.3, 0.1 nM. […]
After the end of incubation, use a multi-label analyzer to read HTRF excitation: 320 nm, emission: 615 nm, 665 nm; […]

[2] = test system: p-ERK in AsPC-1 cells (KRAS^G12D mutation, pancreatic cancer); assay: AsPC-1 cell p-ERK inhibition test, Experimental Example 2; conditions: Homo sapiens, ASPC1, read-out: AsPC-1 p-ERK IC50 (nM)
Procedure: 1640 medium, penicillin/streptomycin antibiotics were purchased from Gibco, and fetal bovine serum was purchased from Biosera. CellTiter-Glo (Cell Viability Chemiluminescence Detection Reagent) reagent was purchased from Promega. AsPC-1 cell line was purchased from ATCC, Envision Multi-Tag Analyzer (PerkinElmer).
AsPC-1 (KRAS^G12D mutation, pancreatic cancer) cells were seeded in ultra-low adsorption 96-well blackwall plate, 80 μL cell suspension per well, containing 10,000 AsPC-1 cell lines from ATCC cells. Plates were incubated overnight in a carbon dioxide incubator.
The test compound was diluted 8 concentrations with a 5-fold drain, i.e., from 2 mM to 25.6 nM, and a double replicate well experiment was set up. Add 78 μL of culture medium to the intermediate plate, and transfer 2 μL of gradient diluted compound per well to the intermediate plate according to the corresponding positions. Mix well and transfer 20 μL of each well to the cell plate. […] Another cell plate was prepared, and the signal value was read as the maximum value (Max value in the equation below) on the day of dosing to participate in the data analysis.
Each 100 μL of cell viability chemiluminescence detection reagent was added to the cell plate and incubated at room temperature for 30 minutes to stabilize the luminescence signal. Use multi-label analyzer for reading. […]

SMILES	IC50 [1]	IC50 [2]
C=C1CN2CCC[C@@]2(COc2nc3c(c(N4CC5CCC(CO)(C4)N5)n2)CO[C@H](c2c(F)c(N)cc(C#CC)c2C(F)(F)F)C3)C1 (some centres unmarked) [Hydrochloride of Compound 1]	164 nM	–
C=C1CN2CCC[C@@]2(COc2nc3c(c(N4CC5CCC(C4)N5)n2)CO[C@H](c2c(F)c(N)cc(C#CCl)c2C(F)(F)F)C3)C1 [Trifluoroacetate of Compound 7]	–	24.9 nM
